Counter-ions that a name gives are not always drawn.
Tests used:
[1] = test system: HCT116; details: 72 h
Summary of the method: (§1)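 HCT116 cells were seeded at 250 per well in 1536-well plates with 5 h allowed for attachment. CellTiter-Glo luminescence was normalized against vehicle (0%) and positive control (-100%) before pattern correction. The IC50 and maximal efficacy figures derive from four-parameter Hill fits.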

[2] = test system: HCT116; assay: efficacy (maximum % inhibition of viability vs DMSO); higher = more cytotoxic; details: 72 h
Summary of the method: as §1

Compound | IC50 cell viability ([1]; ICRF193 0 nM) [µM] | IC50 cell viability ([1]; ICRF193 200 nM) [µM] | efficacy ([2]; ICRF193 0 nM) [%] | efficacy ([2]; ICRF193 200 nM) [%]
NC(=O)[C@@H]1CCCN1C(=O)[C@H](Cc1c[nH]cn1)NC(=O)[C@@H]1CCC(=O)N1 [PROTIRELIN] | 29.1 | 25.9 | 69.8 | 64.8
O=C(O)c1cccc(-c2noc(-c3ccccc3F)n2)c1 [PTC-124] | > 45.8 | 10.3 | – | 46.5
Cc1cc(/C=C/c2ccc3cc(N(C)C)ccc3[n+]2C)c(C)n1-c1ccccc1 [PYRVINIUM PAMOATE] | 20.6 | 18.3 | 111 | 93.2
CC(=O)O[C@H]1C(=O)[C@@]2(C)[C@H]([C@H](OC(=O)c3ccccc3)[C@]3(O)C[C@H](OC(=O)[C@H](O)[C@@H](NC(=O)c4ccccc4)c4ccccc4)C(C)=C1C3(C)C)[C@]1(OC(C)=O)CO[C@@H]1C[C@@H]2O [Paclitaxel] | 0.0058 | 0.00461 | 71.1 | 61.8
CC(=O)c1c(C)c2cnc(Nc3ccc(N4CCNCC4)cn3)nc2n(C2CCCC2)c1=O [Palbociclib] | 29.1 | 16.4 | 98.3 | 104
CNCCC=C1c2ccccc2CCc2ccccc21 [Pamelor] | > 45.8 | 29.1 | – | 51.6
CCOC(=O)Cn1cccc1-c1nc(-c2ccc(OC)cc2)c(-c2ccc(OC)cc2)s1 [Pamicogrel] | 5.8 | 5.17 | 89.1 | 86.7
Cc1[nH]c2ccccc2c1CCNCc1ccc(/C=C/C(=O)NO)cc1 [Panobinostat] | 0.0651 | 0.058 | 95.6 | 94.8
COc1ccc(Cc2nccc3cc(OC)c(OC)cc23)cc1OC [Papaverine hydrochloride] | > 45.8 | 3.66 | – | 41.6
C=C1C(=O)O[C@H]2[C@H]1CC/C(C)=C/CC[C@@]1(C)O[C@@H]21 [Parthenolide] | 6.51 | 8.2 | 93.1 | 95.3
Cc1ccc(Nc2nccc(N(C)c3ccc4c(C)n(C)nc4c3)n2)cc1S(N)(=O)=O [Pazopanib] | 18.3 | > 45.8 | 56.3 | –
CC(C)(C)NC[C@H](O)COc1ccccc1C1CCCC1 [Penbutolol sulfate] | > 45.8 | 20.6 | – | 50
N=C(N)c1ccc(OCCCCCOc2ccc(C(=N)N)cc2)cc1 [Pentamidine isethionate] | > 45.8 | 18.3 | – | 60.4
CN1CCN(CCCN2c3ccccc3Sc3ccccc32)CC1 [Perazine] | 31.6 | 35.5 | 86.5 | 95.2
C1CCC(C(CC2CCCCN2)C2CCCCC2)CC1 (stereo not drawn) [Perhexiline] | 18.3 | 18.3 | 90.2 | 100
OCCN1CCN(CCCN2c3ccccc3Sc3ccc(Cl)cc32)CC1 [Perphenazine] | 23.1 | 23.1 | 108 | 115
CC(=O)[O][Hg][c]1ccccc1 [Phenylmercuric acetate] | 4.61 | 5.17 | 106 | 97.9
CC(C)COc1ccc(CNC(=O)N(Cc2ccc(F)cc2)C2CCN(C)CC2)cc1 [Pimavanserin] | 18.3 | 18.3 | 96.9 | 97.4
CC[C@@H]1/C=C(\C)C[C@H](C)C[C@H](OC)[C@H]2O[C@@](O)(C(=O)C(=O)N3CCCC[C@H]3C(=O)O[C@H](/C(C)=C/[C@@H]3CC[C@H](Cl)[C@H](OC)C3)[C@H](C)[C@@H](O)CC1=O)[C@H](C)C[C@@H]2OC [Pimecrolimus] | 14.6 | 18.3 | 62.4 | 63.4
O=c1[nH]c2ccccc2n1C1CCN(CCCC(c2ccc(F)cc2)c2ccc(F)cc2)CC1 [Pimozide] | 18.3 | 20.6 | 102 | 109
CC(=O)c1ccc2c(c1)N(CCCN1CCC(CCO)CC1)c1ccccc1S2 [Piperacetazine] | > 45.8 | 20.6 | – | 48.7
COc1cccc2c1C(=O)c1c(O)c3c(c(O)c1C2=O)C[C@@](O)(C(=O)CO)C[C@@H]3O[C@H]1C[C@H](N)[C@H](O[C@@H]2CCCCO2)[C@H](C)O1 [Pirarubicin] | 5.17 | 6.51 | 127 | 104
Cc1cc(CC(C)CC(C)(C)C)n(O)c(=O)c1 (stereo not drawn) [Piroctone Olamine] | 18.3 | 29.1 | 81 | 87.4
O=C(O)C[C@H](O)C[C@H](O)/C=C/c1c(C2CC2)nc2ccccc2c1-c1ccc(F)cc1 [Pitavastatin Calcium] | 7.3 | 3.66 | 100 | 110
NCCNc1ccc(NCCN)c2c1C(=O)c1ccncc1C2=O [Pixantronemaleate] | 29.1 | 13 | 83.2 | 82.2
CO[C@H](C(=O)[C@@H](O)[C@@H](C)O)[C@@H]1Cc2cc3cc(O[C@H]4C[C@@H](O[C@@H]5C[C@@H](O)[C@H](O)[C@@H](C)O5)[C@H](O)[C@@H](C)O4)c(C)c(O)c3c(O)c2C(=O)[C@H]1O[C@H]1C[C@@H](O[C@@H]2C[C@@H](O)[C@@H](O[C@@H]3C[C@](C)(O)[C@H](O)[C@@H](C)O3)[C@@H](C)O2)[C@H](O)[C@@H](C)O1 [Plicamycin] | 0.0651 | 0.058 | 82.3 | 83.7
C#CCC(Cc1cnc2nc(N)nc(N)c2n1)c1ccc(C(=O)N[C@@H](CCC(=O)O)C(=O)O)cc1 (stereo partly drawn) [Pralatrexate] | 0.0082 | 0.00651 | 84.8 | 85.6

Compound | IC50 cell viability ([1]; ICRF193 0 nM) [µM] | IC50 cell viability ([1]; ICRF193 200 nM) [µM] | efficacy ([2]; ICRF193 0 nM) [%] | efficacy ([2]; ICRF193 200 nM) [%]
COc1cc2nc(N3CCN(C(=O)c4ccco4)CC3)nc(N)c2cc1OC [Prazosin] | > 45.8 | 7.99 | – | 42.5
CC(C)(C)CC(=O)OCC(=O)[C@@]1(O)CC[C@H]2[C@@H]3CCC4=CC(=O)C=C[C@]4(C)[C@H]3[C@@H](O)C[C@@]21C [Prednisolone tebutate] | > 45.8 | 29.1 | – | 41.9
COc1cc(NC(C)CCCN)c2ncccc2c1 (stereo not drawn) [Primaquine diphosphate] | 5.8 | > 45.8 | 87.5 | –
CN1CCN(CCCN2c3ccccc3Sc3ccc(Cl)cc32)CC1 [Prochlorperazine dimaleate] | 25.9 | 20.6 | 89.6 | 81.1
Nc1ccc2cc3ccc(N)cc3nc2c1 [Proflavin hemisulfate] | 20.6 | 29.1 | 95.1 | 93.6
CC(=O)[C@H]1CC[C@H]2[C@@H]3CCC4=CC(=O)CC[C@]4(C)[C@H]3CC[C@]12C [Progesterone] | 29.1 | 18.3 | 43.3 | 51.2
CCCN(CCC)C(=O)C(CCC(=O)OCCCN1CCN(CCOC(=O)Cc2c(C)n(C(=O)c3ccc(Cl)cc3)c3ccc(OC)cc23)CC1)NC(=O)c1ccccc1 (stereo not drawn) [Proglumetacin] | > 45.8 | 20.6 | – | 48.5
CN(C)CCCN1c2ccccc2Sc2ccccc21 [Promazine hydrochloride] | > 45.8 | 20.6 | – | 46.3
CC(CN1c2ccccc2Sc2ccccc21)N(C)C (stereo not drawn) [Promethazine] | > 45.8 | 29.1 | – | 45.3
CCC(=O)c1ccc2c(c1)N(CCCN(C)C)c1ccccc1S2 [Propionylpromazine hydrochloride] | > 45.8 | 23.1 | – | 60.1
CCCOC(C(=O)OC1CCN(C)CC1)(c1ccccc1)c1ccccc1 [Propiverine hydrochloride] | > 45.8 | 16.4 | – | 45
C[C@@H]1O[C@@H](O[C@@H]2C=C3CC[C@@H]4[C@H](CC[C@]5(C)[C@@H](c6ccc(=O)oc6)CC[C@]45O)[C@@]3(C)CC2)[C@H](O)[C@H](O)[C@H]1O [Proscillaridin] | 0.0164 | 0.013 | 107 | 91.3
CCCCC[C@H](O)/C=C/[C@H]1[C@H](O)CC(=O)[C@@H]1C/C=C\CCCC(=O)O [Prostaglandin E2] | 29.1 | 23.1 | 68.9 | 84.7
CCCSS/C(CCO)=C(/C)N(C=O)Cc1cnc(C)nc1N [Prosultiamine] | > 45.8 | 29.1 | – | 43.7
CNCCCC1c2ccccc2C=Cc2ccccc21 [Protriptyline hydrochloride] | 29.1 | 29.1 | 68.2 | 95.4
CCc1nc(N)nc(N)c1-c1ccc(Cl)cc1 [Pyrimethamine] | 11.6 | 9.2 | 106 | 93.4
O=[N+]([O-])c1c(Cl)cccc1-c1c[nH]cc1Cl [Pyrrolnitrin] | 14.6 | 18.3 | 54.1 | 55.5
C#C[C@]1(O)CC[C@H]2[C@@H]3CCc4cc(OC5CCCC5)ccc4[C@H]3CC[C@@]21C [Quinestrol] | 20.6 | 23.1 | 55 | 56.3
O=C(c1ccc(OCCN2CCCCC2)cc1)c1c(-c2ccc(O)cc2)sc2cc(O)ccc12 [Raloxifene hydrochloride] | 18.3 | 20.6 | 98.1 | 88.8
CNC(=O)c1cc(Oc2ccc(NC(=O)Nc3ccc(Cl)c(C(F)(F)F)c3)c(F)c2)ccn1 [Regorafenib] | 8.2 | 5.8 | 67.3 | 80.7
COC(=O)[C@H]1[C@H]2C[C@@H]3c4[nH]c5cc(OC)ccc5c4CCN3C[C@H]2C[C@@H](OC(=O)/C=C/c2ccc(O)c(OC)c2)[C@@H]1OC [Rescimetol] | 20.6 | 29.1 | 101 | 106
COC(=O)[C@H]1[C@H]2C[C@@H]3c4[nH]c5cc(OC)ccc5c4CCN3C[C@H]2C[C@@H](OC(=O)c2cc(OC)c(OC)c(OC)c2)[C@@H]1OC [Reserpine] | > 45.8 | 16.4 | – | 42.6
Oc1cccc(O)c1 [Resorcinol] | > 45.8 | 29.1 | – | 46.8
C=CCNc1c(O)cc2c(O)c1C[C@@H](C)C[C@H](OC)[C@H](O)[C@@H](C)/C=C(\C)[C@H](OC(N)=O)[C@@H](OC)/C=C\C=C(/C)C(=O)N2 [Retaspimycin (Hydrochloride)] | 1.16 | 0.291 | 80.4 | 79.8
CCCC(=O)OC[C@@H](OC(=O)CCC)[C@@H](OC(=O)CCC)[C@H](Cn1c2nc(=O)[nH]c(=O)c-2nc2cc(C)c(C)cc21)OC(=O)CCC [Riboflavin tetrabutyrate] | 29.1 | 18.3 | 64.5 | 82.1
Cc1cc2nc3c(=O)[nH]c(=O)nc-3n(C[C@H](O)[C@H](O)[C@H](O)CO)c2cc1C [Riboflavin] | > 45.8 | 14.2 | – | 57.7

Source: the supplement of paper PMC12137928
